Reference: publication PMC6591457, “Staphylococcus aureus Uses the Bacilliredoxin (BrxAB)/Bacillithiol Disulfide Reductase (YpdA) Redox Pathway to Defend Against Oxidative Stress Under Infections” (Frontiers in Microbiology, 2019)

Experiments:
YpdA [1] = target: T1, YpdA (Staphylococcus aureus, UniProt A0A0H2WWS2); test: NADPH consumption at […] nm; assay type: biochemical; conditions: 12.5 uM YpdA, 40 uM BSSB, 500 uM NADPH, 20 mM Tris, 1.25 mM EDTA, pH 8.0
T1 construct: gene SACOL1520; full-length, His6-tagged, pET11b, E. coli BL21(DE3) pLysS, Ni-NTA purified, prereduced with DTT

YpdA [2] = target: T1, YpdA; test: UV-visible spectrum of purified enzyme; assay type: binding; conditions: co-purified flavin, absorbance peaks at 375 and 450 nm

T1 sequence (A0A0H2WWS2 entry or part of it): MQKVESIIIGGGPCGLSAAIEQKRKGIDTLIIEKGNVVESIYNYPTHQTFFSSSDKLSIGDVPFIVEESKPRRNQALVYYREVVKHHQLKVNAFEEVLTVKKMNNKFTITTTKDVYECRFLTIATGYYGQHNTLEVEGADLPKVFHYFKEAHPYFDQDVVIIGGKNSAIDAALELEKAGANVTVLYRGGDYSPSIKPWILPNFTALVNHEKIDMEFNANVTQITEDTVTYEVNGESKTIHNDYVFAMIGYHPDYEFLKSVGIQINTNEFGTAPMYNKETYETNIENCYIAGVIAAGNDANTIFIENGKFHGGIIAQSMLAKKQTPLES

`N[C@@H](CSSC[C@H](N)C(=O)N[C@H]1[C@@H](O[C@@H](CC(=O)O)C(=O)O)O[C@H](CO)[C@@H](O)[C@@H]1O)C(=O)N[C@H]1[C@@H](O[C@@H](CC(=O)O)C(=O)O)O[C@H](CO)[C@@H](O)[C@@H]1O` [BSSB] was tested, and the “NADPH consumption at 340 nm” value (YpdA [1]) was “Incubation of YpdA protein with BSSB resulted in significant and fast consumption of NADPH”.
With `Cc1cc2nc3c(=O)[nH]c(=O)nc-3n(C[C@H](O)[C@H](O)[C@H](O)COP(=O)(O)OP(=O)(O)OC[C@H]3O[C@@H](n4cnc5c(N)ncnc54)[C@H](O)[C@@H]3O)c2cc1C` [FAD] the “UV-visible spectrum of purified enzyme” value (YpdA [2]) was “UV-visible spectrum revealed the presence of the FAD co-factor”.
For `NC(=O)C1=CN([C@@H]2O[C@H](COP(=O)(O)OP(=O)(O)OC[C@H]3O[C@@H](n4cnc5c(N)ncnc54)[C@H](OP(=O)(O)O)[C@@H]3O)[C@@H](O)[C@H]2O)C=CC1` [NADPH], the “NADPH consumption at 340 nm” value (YpdA [1]) was “Purified YpdA is able to reduce BSSB back to BSH with electrons from NADPH”.
